Results taken from patent US5906918A, “Compositions and methods for measurement of oxidative DNA damage” (Health Research Inc., priority 1997, dated 1999).

How the values were obtained:
[1] = molecular target: T1, nuclease P1 (Penicillium citrinum, UniProt P24289); assay: Endonuclease (nuclease P1) turnover rate for hydrolysis of modified dinucleoside monophosphates; format: biochemical; conditions: 6 nmol substrate in 100 μl 60 mM sodium acetate buffer pH 5.3 with zinc chloride, 50 ng nuclease P1, 37° C., HPLC analysis
T1 sequence (P24289 1-270): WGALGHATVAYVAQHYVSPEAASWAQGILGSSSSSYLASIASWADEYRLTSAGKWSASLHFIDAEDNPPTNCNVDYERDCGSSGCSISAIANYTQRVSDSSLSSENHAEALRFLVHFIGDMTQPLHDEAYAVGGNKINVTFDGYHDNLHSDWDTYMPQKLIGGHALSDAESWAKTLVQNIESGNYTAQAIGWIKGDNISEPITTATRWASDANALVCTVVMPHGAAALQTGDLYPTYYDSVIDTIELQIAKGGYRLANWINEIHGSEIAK
Method: The endonuclease turnover rate was measured in terms of the number of substrate molecules hydrolyzed per minute per molecule of enzyme. The substrates were modified dinucleoside monophosphates comprising the DNA base modifications illustrated in FIG. 1. The respective unmodified dinucleoside monophosphates were purchased commercially, with the exceptions of d(GpG), d(GpC), d(GpA), and d(GpT) which were prepared using methods previously described (Paul et al., 1988, Int. J. Radiat. Biol. 54:403-415). A solution of each the unmodified dinucleoside monophosphates was X-irradiated, and the corresponding modified dinucleoside monophosphate was isolated by reverse-phase HPLC (see, e.g., Schroder et al., 1995, Int. J. Radiat. Biol. 68:509-23; and Box et al., 1995, In Radiation Damage in DNA, eds. Fuciarelli and Zimbrick, publs. Battelle Press). The one exception to producing modified dinucleoside monophosphates was the production of the DNA base modification thymine glycol. Modified dinucleoside monophosphates bearing the thymine glycol modification were prepared by treating dTpA with osmium tetroxide (see, e.g., Belfi et al., 1986, supra). The DNA base modifications were identified using proton nuclear magnetic resonance spectroscopy (see, e.g., Schroder et al., 1995, Int. J. Radiat. Biol. 68:509-23).
Concentrations of the modified dinucleoside monophosphates were determined spectrophotometrically at 260 nm. The rates of hydrolysis for the modified dinucleoside monophosphates by endonuclease were obtained from measurements of equimolar amounts of the substrate modified dinucleoside monophosphate (6 nmol) in 100 μl of 60 mM sodium acetate buffer (pH 5.3, containing […] zinc chloride). Hydrolysis was initiated by the addition of the endonuclease (50 ng of nuclease P1 in 2 μl buffer) and the reactants were incubated in a 37° C. water bath. At varying times, hydrolysis was terminated by the addition of 15 μl of 1M Tris, and rapid freezing in a liquid nitrogen bath. The products of digestion were analyzed by injecting the digest onto a C-18 reverse phase HPLC column, with elution using a 5%-53% linear gradient of CH3 CN/0.1M ammonium acetate buffer, pH 7.0 at a 1.0 ml/minute flow rate. Moles of protein were calculated from the weight of the material and the known molecular weights for the constituents. The results of the measurement of the endonuclease turnover rates (R, as measured in terms of molecules hydrolyzed per minute per molecule of enzyme) for each of the modified dinucleoside monophosphates tested is illustrated in Table 1.

[2] = molecular target: T1, nuclease P1; conditions: endonucleases such as nuclease P1; Maccubbin et al., 1993; cited from earlier work

endonuclease turnover rate R [1] | Compound | hydrolysis by endonuclease of the phosphoester bond 3' to the modified nucleoside [2]
no hydrolysis detected | Nc1ccn([C@H]2C[C@H](O)[C@@H](COP(=O)(O)O[C@H]3C[C@H](NC=O)O[C@@H]3CO)O2)c(=O)n1 [d(T*pC) formamido remnant] | 
no hydrolysis detected | Nc1ncnc2c1ncn2[C@H]1C[C@H](O)[C@@H](COP(=O)(O)O[C@H]2C[C@H](NC=O)O[C@@H]2CO)O1 [d(T*pA) formamido remnant] | do not hydrolyze
no hydrolysis detected | Cc1cn([C@H]2C[C@H](O)[C@@H](COP(=O)(O)O[C@H]3C[C@H](NC=O)O[C@@H]3CO)O2)c(=O)[nH]c1=O [d(T*pT) formamido remnant] | 
no hydrolysis detected | Nc1nc2c(ncn2[C@H]2C[C@H](O)[C@@H](COP(=O)(O)O[C@H]3C[C@H](NC=O)O[C@@H]3CO)O2)c(=O)[nH]1 [d(T*pG) formamido remnant] | 
